Laboratory results: PMC5218480 (PLoS ONE, 2017)

Tested on: MV-4-11 cells
Assay: Gene expression microarray analysis (Affymetrix PrimeView) and GSEA
Format: cell-based, human
Parameters: RFU PODN (11730768_x_at) / Fold change /veh PODN (11730768_x_at) / RFU LINC00158 (11744669_a_at) / Fold change /veh LINC00158 (11744669_a_at) / RFU DUSP10 (11751237_a_at) / Fold change /veh DUSP10 (11751237_a_at) / RFU ID3 (11757404_x_at) / Fold change /veh ID3 (11757404_x_at) / RFU PLEKHG5 (11737974_s_at) / Fold change /veh PLEKHG5 (11737974_s_at) / RFU LRRC4B (11730491_at) / Fold change /veh LRRC4B (11730491_at) / RFU GIMAP4 (11747438_a_at) / Fold change /veh GIMAP4 (11747438_a_at) / RFU KRT8 (11758183_x_at) / Fold change /veh KRT8 (11758183_x_at) / RFU CNN1 (11734310_a_at) / Fold change /veh CNN1 (11734310_a_at) / RFU VPS37D (11726825_at) / Fold change /veh VPS37D (11726825_at) / RFU C10orf10 (11716522_x_at) / Fold change /veh C10orf10 (11716522_x_at) / RFU KIR2DL2 /// KIR2DL4 /// KIR2DL5A /// KIR2DL5B /// KIR2DS1 /// KIR2DS2 /// KIR2DS3 /// KIR2DS4 /// KIR3DL3 /// KIR3DL3 /// KIR3DS1 (11738374_at) / Fold change /veh KIR2DL2 /// KIR2DL4 /// KIR2DL5A /// KIR2DL5B /// KIR2DS1 /// KIR2DS2 /// KIR2DS3 /// KIR2DS4 /// KIR3DL3 /// KIR3DL3 /// KIR3DS1 (11738374_at) / RFU C1QL1 (11718748_at) / Fold change /veh C1QL1 (11718748_at) / RFU TMPRSS4 (11747572_a_at) / Fold change /veh TMPRSS4 (11747572_a_at) / RFU HAMP (11756126_x_at) / Fold change /veh HAMP (11756126_x_at) / RFU RNFT2 (11725882_a_at) / Fold change /veh RNFT2 (11725882_a_at) / RFU NR4A2 (11747474_a_at) / Fold change /veh NR4A2 (11747474_a_at) / RFU ABCC12 (11746883_a_at) / Fold change /veh ABCC12 (11746883_a_at) / RFU TMEM136 (11760407_x_at) / Fold change /veh TMEM136 (11760407_x_at) / RFU CLDN22 /// WWC2 (11732394_at) / Fold change /veh CLDN22 /// WWC2 (11732394_at) / RFU HLA-DPB1 (11760878_x_at) / Fold change /veh HLA-DPB1 (11760878_x_at) / RFU SPINT1 (11716480_a_at) / Fold change /veh SPINT1 (11716480_a_at) / RFU GAP43 (11754022_s_at) / Fold change /veh GAP43 (11754022_s_at) / RFU A4GNT (11735810_at) / Fold change /veh A4GNT (11735810_at) / RFU PRB3 (11715151_x_at) / Fold change /veh PRB3 (11715151_x_at) / RFU TUBB4B (11761932_at) / Fold change /veh TUBB4B (11761932_at) / RFU CAPN14 (11732068_a_at) / Fold change /veh CAPN14 (11732068_a_at) / RFU TMCC2 (11721928_a_at) / Fold change /veh TMCC2 (11721928_a_at) / RFU IRGQ (11745062_a_at) / Fold change /veh IRGQ (11745062_a_at) / RFU FAM174B (11720279_a_at) / Fold change /veh FAM174B (11720279_a_at) / RFU TMPRSS4 (11748680_a_at) / Fold change /veh TMPRSS4 (11748680_a_at) / RFU FAM212B (11763350_a_at) / Fold change /veh FAM212B (11763350_a_at) / RFU PLEKHG5 (11743358_a_at) / Fold change /veh PLEKHG5 (11743358_a_at) / RFU ZSCAN30 (11745921_a_at) / Fold change /veh ZSCAN30 (11745921_a_at) / RFU CMKLR1 (11741424_a_at) / Fold change /veh CMKLR1 (11741424_a_at) / RFU LOC101060620 /// MAPK8IP1 (11723275_at) / Fold change /veh LOC101060620 /// MAPK8IP1 (11723275_at) / RFU SPTSSB (11747773_x_at) / Fold change /veh SPTSSB (11747773_x_at) / RFU PRSS12 (11739890_at) / Fold change /veh PRSS12 (11739890_at) / RFU BIN1 (11741810_x_at) / Fold change /veh BIN1 (11741810_x_at) / RFU WNT11 (11732464_a_at) / Fold change /veh WNT11 (11732464_a_at) / RFU C10orf10 (11716521_a_at) / Fold change /veh C10orf10 (11716521_a_at) / RFU C5orf56 (11738089_at) / Fold change /veh C5orf56 (11738089_at) / RFU CYB561 (11721691_x_at) / Fold change /veh CYB561 (11721691_x_at) / RFU ANKRD19P (11752326_a_at) / Fold change /veh ANKRD19P (11752326_a_at) / RFU OR2T12 /// OR2T33 /// OR2T8 (11738714_s_at) / Fold change /veh OR2T12 /// OR2T33 /// OR2T8 (11738714_s_at) / RFU VCAN (11748164_a_at) / Fold change /veh VCAN (11748164_a_at) / RFU JSRP1 (11732532_at) / Fold change /veh JSRP1 (11732532_at) / RFU KRTAP10-11 (11738290_x_at) / Fold change /veh KRTAP10-11 (11738290_x_at) / RFU MYO3A (11730013_a_at) / Fold change /veh MYO3A (11730013_a_at) / RFU EBF3 (11725865_a_at) / Fold change /veh EBF3 (11725865_a_at) / RFU CAMK2N1 (11719241_x_at) / Fold change /veh CAMK2N1 (11719241_x_at) / RFU C5orf56 (11738088_a_at) / Fold change /veh C5orf56 (11738088_a_at) / RFU OLFML3 (11715873_a_at) / Fold change /veh OLFML3 (11715873_a_at) / RFU LOC100653217 /// NTM (11731650_a_at) / Fold change /veh LOC100653217 /// NTM (11731650_a_at) / RFU MAPK11 (11762145_a_at) / Fold change /veh MAPK11 (11762145_a_at) / RFU FIZ1 (11724087_x_at) / Fold change /veh FIZ1 (11724087_x_at) / RFU OASL (11726364_x_at) / Fold change /veh OASL (11726364_x_at) / RFU SOX15 (11748057_x_at) / Fold change /veh SOX15 (11748057_x_at) / RFU CD79A (11719716_a_at) / Fold change /veh CD79A (11719716_a_at) / RFU HIST1H1D (11736915_at) / Fold change /veh HIST1H1D (11736915_at) / RFU CASKIN2 (11723855_a_at) / Fold change /veh CASKIN2 (11723855_a_at) / RFU LOC730098 (11760151_x_at) / Fold change /veh LOC730098 (11760151_x_at) / RFU OR4N2 (11742367_at) / Fold change /veh OR4N2 (11742367_at) / RFU PRRT2 (11749266_a_at) / Fold change /veh PRRT2 (11749266_a_at) / RFU SNX32 (11753110_a_at) / Fold change /veh SNX32 (11753110_a_at) / RFU CDHR5 (11726645_a_at) / Fold change /veh CDHR5 (11726645_a_at) / RFU RCAN1 (11760418_a_at) / Fold change /veh RCAN1 (11760418_a_at) / RFU FAM167A (11723789_a_at) / Fold change /veh FAM167A (11723789_a_at) / RFU FAM26E (11764081_at) / Fold change /veh FAM26E (11764081_at) / RFU ISYNA1 (11749810_s_at) / Fold change /veh ISYNA1 (11749810_s_at) / RFU ACY1 (11761880_at) / Fold change /veh ACY1 (11761880_at) / RFU 11764098_at / Fold change /veh 11764098_at / RFU SAMD14 (11745864_x_at) / Fold change /veh SAMD14 (11745864_x_at) / RFU NPB (11741838_a_at) / Fold change /veh NPB (11741838_a_at) / RFU TMPRSS6 (11731388_a_at) / Fold change /veh TMPRSS6 (11731388_a_at) / RFU KRTAP10-2 (11738614_at) / Fold change /veh KRTAP10-2 (11738614_at) / RFU ARHGAP8 /// PRR5-ARHGAP8 (11727945_x_at) / Fold change /veh ARHGAP8 /// PRR5-ARHGAP8 (11727945_x_at) / RFU KRTAP5-7 /// NADSYN1 (11734609_at) / Fold change /veh KRTAP5-7 /// NADSYN1 (11734609_at) / RFU RASL12 (11751679_a_at) / Fold change /veh RASL12 (11751679_a_at) / RFU CDKN2B (11736163_a_at) / Fold change /veh CDKN2B (11736163_a_at) / RFU PRF1 (11729649_at) / Fold change /veh PRF1 (11729649_at) / RFU, ZNF638 /// ZNF638-IT1 / Fold change vs veh, ZNF638 /// ZNF638-IT1 / RFU, PANK3 / Fold change vs veh, PANK3 / RFU, SH3YL1 / Fold change vs veh, SH3YL1 / RFU, ZEB2 / Fold change vs veh, ZEB2 / RFU, NRIP1 / Fold change vs veh, NRIP1 / RFU, PTTG1IP / Fold change vs veh, PTTG1IP / RFU, CAPN2 / Fold change vs veh, CAPN2 / RFU, MED14 / Fold change vs veh, MED14 / RFU, SNORA58 / Fold change vs veh, SNORA58 / RFU, C1orf63 / Fold change vs veh, C1orf63 / RFU, LRRFIP1 / Fold change vs veh, LRRFIP1 / RFU, NDUFAF7 / Fold change vs veh, NDUFAF7 / RFU, SLC12A2 / Fold change vs veh, SLC12A2 / RFU, IBTK / Fold change vs veh, IBTK / RFU, ESF1 / Fold change vs veh, ESF1 / Fold change vs veh, TMEM50B / RFU, TAOK1 / Fold change vs veh, TAOK1 / RFU, ACBD3 / Fold change vs veh, ACBD3 / RFU, TMA16 / Fold change vs veh, TMA16 / RFU, RWDD3 / Fold change vs veh, RWDD3 / RFU, BCAT1 / Fold change vs veh, BCAT1 / RFU, EDEM3 / Fold change vs veh, EDEM3 / RFU, TMEM33 / Fold change vs veh, TMEM33 / RFU, WDR75 / Fold change vs veh, WDR75 / RFU, AHCTF1 / Fold change vs veh, AHCTF1 / RFU, TFRC / Fold change vs veh, TFRC / RFU, ZDHHC17 / Fold change vs veh, ZDHHC17 / RFU, NOM1 / Fold change vs veh, NOM1 / RFU, ARL8B / Fold change vs veh, ARL8B / RFU, ZBTB11 / Fold change vs veh, ZBTB11 / RFU, TAMM41 / Fold change vs veh, TAMM41 / RFU, KIAA1704 /// LOC100996395 / Fold change vs veh, KIAA1704 /// LOC100996395 / RFU, ING1 / Fold change vs veh, ING1 / RFU, TRMT61B / Fold change vs veh, TRMT61B / RFU, FUBP3 / Fold change vs veh, FUBP3 / RFU, TP53 / Fold change vs veh, TP53 / RFU, TNKS2 / Fold change vs veh, TNKS2 / RFU, ZFP14 / Fold change vs veh, ZFP14 / RFU, ACTR2 / Fold change vs veh, ACTR2 / RFU, PPP3R1 / Fold change vs veh, PPP3R1 / RFU, PIK3R1 / Fold change vs veh, PIK3R1 / RFU, HNRNPA1 / Fold change vs veh, HNRNPA1 / RFU, RNF170 / Fold change vs veh, RNF170 / RFU, ZNF28 / Fold change vs veh, ZNF28 / RFU, RNGTT / Fold change vs veh, RNGTT / RFU, OGT / Fold change vs veh, OGT / RFU, BRD1 / Fold change vs veh, BRD1 / RFU, MARS / Fold change vs veh, MARS / RFU, ZNF655 / Fold change vs veh, ZNF655 / RFU, FAHD1 / Fold change vs veh, FAHD1 / RFU, BDP1 / Fold change vs veh, BDP1 / RFU, LRRCC1 / Fold change vs veh, LRRCC1 / RFU, ARID1A / Fold change vs veh, ARID1A / RFU, ZNF146 / Fold change vs veh, ZNF146 / RFU, ZNF330 / Fold change vs veh, ZNF330 / RFU, GPN3 / Fold change vs veh, GPN3 / RFU, C9orf123 / Fold change vs veh, C9orf123 / RFU, N4BP2L2 / Fold change vs veh, N4BP2L2 / RFU, ARFIP1 / Fold change vs veh, ARFIP1 / RFU, FAM179B / Fold change vs veh, FAM179B / RFU, BCL10 / Fold change vs veh, BCL10 / RFU, UHRF1BP1L / Fold change vs veh, UHRF1BP1L / RFU, BET1 / Fold change vs veh, BET1 / RFU, CNOT2 / Fold change vs veh, CNOT2 / RFU, ZNF268 / Fold change vs veh, ZNF268 / Fold change vs veh, ZNF507 / RFU, DGCR2 / Fold change vs veh, DGCR2 / RFU, WDSUB1 / Fold change vs veh, WDSUB1 / Fold change vs veh, HSP90B1 /// MIR3652 / RFU, ADSS / Fold change vs veh, ADSS / RFU, GK / Fold change vs veh, GK / RFU, ZNF148 / Fold change vs veh, ZNF148 / RFU, TAF9 / Fold change vs veh, TAF9 / RFU, SLC1A5 / Fold change vs veh, SLC1A5 / RFU, SLMO2 / Fold change vs veh, SLMO2 / RFU, ABCC4 / Fold change vs veh, ABCC4 / RFU, LOC101060439 /// RAP1B / Fold change vs veh, LOC101060439 /// RAP1B / RFU, RFX7 / Fold change vs veh, RFX7 / RFU, GTPBP10 / Fold change vs veh, GTPBP10 / RFU, CNEP1R1 / Fold change vs veh, CNEP1R1 / RFU, BIVM-ERCC5 /// ERCC5 / Fold change vs veh, BIVM-ERCC5 /// ERCC5 / RFU, ILF3 / Fold change vs veh, ILF3 / RFU 11762660_at / Fold change /veh 11762660_at / RFU VCAN (11757783_s_at) / Fold change /veh VCAN (11757783_s_at) / RFU DDX43 (11728927_at) / Fold change /veh DDX43 (11728927_at) / RFU KRT8 (11758188_x_at) / Fold change /veh KRT8 (11758188_x_at) / RFU NKD1 (11759106_at) / Fold change /veh NKD1 (11759106_at) / RFU SRD5A1 (11742802_a_at) / Fold change /veh SRD5A1 (11742802_a_at) / RFU TPSAB1 /// TPSB2 (11721975_s_at) / Fold change /veh TPSAB1 /// TPSB2 (11721975_s_at) / RFU GSTM3 (11746129_a_at) / Fold change /veh GSTM3 (11746129_a_at) / RFU IL23R (11737362_x_at) / Fold change /veh IL23R (11737362_x_at) / RFU TMEM51 (11727254_a_at) / Fold change /veh TMEM51 (11727254_a_at) / RFU PIWIL2 (11732686_x_at) / Fold change /veh PIWIL2 (11732686_x_at) / RFU ORM1 (11744905_x_at) / Fold change /veh ORM1 (11744905_x_at) / RFU CCDC152 (11743942_at) / Fold change /veh CCDC152 (11743942_at) / RFU ECM1 (11717891_a_at) / Fold change /veh ECM1 (11717891_a_at) / RFU IL23R (11748794_a_at) / Fold change /veh IL23R (11748794_a_at) / RFU TNFAIP8L3 (11732012_x_at) / Fold change /veh TNFAIP8L3 (11732012_x_at) / RFU MBOAT4 (11741988_at) / Fold change /veh MBOAT4 (11741988_at) / RFU 11764193_at / Fold change /veh 11764193_at / RFU TMEM53 (11763286_at) / Fold change /veh TMEM53 (11763286_at) / RFU MAGEB2 (11727129_at) / Fold change /veh MAGEB2 (11727129_at) / RFU TMEM200A (11744735_a_at) / Fold change /veh TMEM200A (11744735_a_at) / RFU CCDC152 (11751479_a_at) / Fold change /veh CCDC152 (11751479_a_at) / RFU FAM211A (11726209_a_at) / Fold change /veh FAM211A (11726209_a_at) / RFU RGS16 (11746705_a_at) / Fold change /veh RGS16 (11746705_a_at) / RFU VCAN (11755009_s_at) / Fold change /veh VCAN (11755009_s_at) / RFU RHOB (11743442_s_at) / Fold change /veh RHOB (11743442_s_at) / RFU RGS16 (11720943_a_at) / Fold change /veh RGS16 (11720943_a_at) / RFU RGS16 (11720944_at) / Fold change /veh RGS16 (11720944_at) / RFU, VPS4B / Fold change vs veh, VPS4B / RFU, CREB1 / Fold change vs veh, CREB1 / RFU, DNAJC13 / Fold change vs veh, DNAJC13 / RFU, GNAQ / Fold change vs veh, GNAQ / RFU, CDK5R1 / Fold change vs veh, CDK5R1 / RFU, ZRANB3 / Fold change vs veh, ZRANB3 / RFU, CUL4A / Fold change vs veh, CUL4A / RFU, CCNY / Fold change vs veh, CCNY / RFU, UFL1 / Fold change vs veh, UFL1 / RFU, COG3 / Fold change vs veh, COG3 / RFU, DIAPH2 / Fold change vs veh, DIAPH2 / RFU, SKA2 / Fold change vs veh, SKA2 / RFU, AFF3 / Fold change vs veh, AFF3 / RFU, LMF1 / Fold change vs veh, LMF1 / RFU, IPO11 / Fold change vs veh, IPO11 / RFU, DFFB / Fold change vs veh, DFFB / RFU, FOXP1 / Fold change vs veh, FOXP1 / RFU, CARD8 / Fold change vs veh, CARD8 / RFU, STRN3 / Fold change vs veh, STRN3 / RFU, ADK / Fold change vs veh, ADK / RFU, RASSF2 / Fold change vs veh, RASSF2 / RFU, WIPF1 / Fold change vs veh, WIPF1 / RFU, LARP1B / Fold change vs veh, LARP1B / RFU, RASA1 / Fold change vs veh, RASA1 / RFU, RB1 / Fold change vs veh, RB1 / RFU, PPFIA1 / Fold change vs veh, PPFIA1 / RFU, MAT2A / Fold change vs veh, MAT2A / RFU, CCT5 / Fold change vs veh, CCT5 / RFU, WDR92 / Fold change vs veh, WDR92 / RFU, CUX1 / Fold change vs veh, CUX1 / RFU, TTC7A / Fold change vs veh, TTC7A / RFU, TMEM135 / Fold change vs veh, TMEM135 / RFU, DEPTOR / Fold change vs veh, DEPTOR / RFU, CPM / Fold change vs veh, CPM / RFU, DNAJB6 / Fold change vs veh, DNAJB6 / RFU, CACNA2D3 / Fold change vs veh, CACNA2D3 / RFU, DTX4 / Fold change vs veh, DTX4 / RFU, TFCP2 / Fold change vs veh, TFCP2 / RFU, GMCL1 /// GMCL1P1 / Fold change vs veh, GMCL1 /// GMCL1P1 / RFU, AEBP2 / Fold change vs veh, AEBP2 / RFU, SNHG1 /// SNORD22 /// SNORD25 /// SNORD26 /// SNORD27 /// SNORD28 /// SNORD29 /// SNORD31 / Fold change vs veh, SNHG1 /// SNORD22 /// SNORD25 /// SNORD26 /// SNORD27 /// SNORD28 /// SNORD29 /// SNORD31 / Fold change (Aza/veh), C12orf56 (ProbeSet 11735607_a_at) / Fold change (ACY-1035/veh), C12orf56 (ProbeSet 11735607_a_at) / Fold change (Aza/veh), FGFR1OP (ProbeSet 11751329_s_at) / Fold change (ACY-1035/veh), FGFR1OP (ProbeSet 11751329_s_at) / Fold change (Aza/veh), VPS36 (ProbeSet 11739960_a_at) / Fold change (ACY-1035/veh), VPS36 (ProbeSet 11739960_a_at) / RFU SYPL1 (11715823_x_at) / Fold change /veh SYPL1 (11715823_x_at) / RFU IGFBP7 (11715501_s_at) / Fold change /veh IGFBP7 (11715501_s_at) / RFU REEP3 (11722064_at) / Fold change /veh REEP3 (11722064_at) / RFU IGLL1 (11728026_x_at) / Fold change /veh IGLL1 (11728026_x_at): dose or concentration left out as unconfirmed
Conditions: ProbeSet 11717914_a_at; LIST B

Nc1ccc(-c2cccs2)cc1NC(=O)c1ccc2c(c1)cc(C1CC1)n2CCN1CCOCC1 [ACY-1035]
RFU, BIVM-ERCC5 /// ERCC5: 177.23 RFU
